Assay results from paper PMC10638548 (Acta Pharmaceutica Sinica. B, 2023).

Key:
CYP2A6 = biological target: T1, CYP2A6 (Homo sapiens, UniProt P11509); settings: 20 μmol/L NMV, 10 pmol CYP, 1 mmol/L NADPH, 37 °C, 1 h
T1 sequence (P11509 1-494): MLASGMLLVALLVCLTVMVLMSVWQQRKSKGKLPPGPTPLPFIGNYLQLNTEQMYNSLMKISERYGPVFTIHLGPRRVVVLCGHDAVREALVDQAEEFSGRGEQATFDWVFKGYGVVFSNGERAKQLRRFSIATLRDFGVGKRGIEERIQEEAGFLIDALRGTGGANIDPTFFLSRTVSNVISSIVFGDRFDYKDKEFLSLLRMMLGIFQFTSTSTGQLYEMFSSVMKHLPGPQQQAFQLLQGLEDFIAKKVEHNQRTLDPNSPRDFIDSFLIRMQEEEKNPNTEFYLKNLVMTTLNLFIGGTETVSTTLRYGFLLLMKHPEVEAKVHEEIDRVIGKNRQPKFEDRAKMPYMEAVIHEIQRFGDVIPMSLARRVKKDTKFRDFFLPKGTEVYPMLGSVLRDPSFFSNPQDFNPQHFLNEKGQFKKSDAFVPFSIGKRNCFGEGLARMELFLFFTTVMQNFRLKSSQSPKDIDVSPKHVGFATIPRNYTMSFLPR

CYP1A2 = biological target: T2, CYP1A2 (Homo sapiens, UniProt P05177); settings: 20 μmol/L NMV, 10 pmol CYP, 1 mmol/L NADPH, 37 °C, 1 h
T2 sequence (P05177 1-516): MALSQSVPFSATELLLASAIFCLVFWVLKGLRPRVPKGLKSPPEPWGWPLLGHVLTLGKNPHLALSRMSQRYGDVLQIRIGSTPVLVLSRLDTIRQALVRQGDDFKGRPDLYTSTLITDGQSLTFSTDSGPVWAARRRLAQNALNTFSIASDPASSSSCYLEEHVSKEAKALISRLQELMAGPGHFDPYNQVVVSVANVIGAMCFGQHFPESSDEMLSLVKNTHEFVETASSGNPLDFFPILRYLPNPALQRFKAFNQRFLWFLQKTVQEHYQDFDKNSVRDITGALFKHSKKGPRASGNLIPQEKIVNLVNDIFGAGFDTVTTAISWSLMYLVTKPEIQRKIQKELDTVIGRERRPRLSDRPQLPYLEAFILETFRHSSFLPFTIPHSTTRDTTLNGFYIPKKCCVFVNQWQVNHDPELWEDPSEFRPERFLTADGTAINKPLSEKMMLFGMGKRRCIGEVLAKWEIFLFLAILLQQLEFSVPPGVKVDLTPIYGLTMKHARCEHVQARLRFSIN

CYP2C9 = CYP2C9 (Homo sapiens, UniProt P11712); settings: 20 μmol/L NMV, 10 pmol CYP, 1 mmol/L NADPH, 37 °C, 1 h
Chain of CYP2C9 (P11712 whole entry): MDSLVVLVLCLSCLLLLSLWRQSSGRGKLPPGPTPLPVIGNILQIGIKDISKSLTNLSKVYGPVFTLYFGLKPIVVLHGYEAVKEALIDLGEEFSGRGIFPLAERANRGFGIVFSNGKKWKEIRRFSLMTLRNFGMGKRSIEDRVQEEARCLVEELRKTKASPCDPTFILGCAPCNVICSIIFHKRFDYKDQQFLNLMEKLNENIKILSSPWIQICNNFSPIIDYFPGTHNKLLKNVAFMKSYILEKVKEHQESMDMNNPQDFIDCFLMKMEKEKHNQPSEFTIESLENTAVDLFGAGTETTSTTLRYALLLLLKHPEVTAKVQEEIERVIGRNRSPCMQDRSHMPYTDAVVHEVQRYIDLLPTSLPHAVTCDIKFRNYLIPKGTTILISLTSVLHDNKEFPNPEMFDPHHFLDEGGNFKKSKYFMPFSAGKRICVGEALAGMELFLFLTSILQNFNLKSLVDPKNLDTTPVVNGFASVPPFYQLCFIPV

CYP2D6 = CYP2D6 (Homo sapiens, UniProt P10635); settings: 20 μmol/L NMV, 10 pmol CYP, 1 mmol/L NADPH, 37 °C, 1 h
Chain of CYP2D6 (P10635 whole entry): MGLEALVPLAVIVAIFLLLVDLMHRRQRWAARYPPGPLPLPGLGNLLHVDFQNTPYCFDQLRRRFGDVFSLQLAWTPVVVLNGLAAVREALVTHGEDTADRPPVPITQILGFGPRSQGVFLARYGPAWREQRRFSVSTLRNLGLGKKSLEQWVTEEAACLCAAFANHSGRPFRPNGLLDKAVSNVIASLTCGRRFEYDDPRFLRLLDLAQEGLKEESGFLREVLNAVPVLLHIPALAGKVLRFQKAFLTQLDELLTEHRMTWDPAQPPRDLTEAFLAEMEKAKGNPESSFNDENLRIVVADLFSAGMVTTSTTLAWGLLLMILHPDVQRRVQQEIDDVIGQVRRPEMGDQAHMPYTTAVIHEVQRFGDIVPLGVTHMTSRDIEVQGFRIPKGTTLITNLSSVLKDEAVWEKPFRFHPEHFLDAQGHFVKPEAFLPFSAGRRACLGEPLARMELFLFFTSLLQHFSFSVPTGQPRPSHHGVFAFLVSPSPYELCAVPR

[1] = cited from earlier work
CYP2B6 = biological target: T3, CYP2B6 (Homo sapiens, UniProt P20813); settings: 20 μmol/L NMV, 10 pmol CYP, 1 mmol/L NADPH, 37 °C, 1 h
T3 sequence (P20813 1-491): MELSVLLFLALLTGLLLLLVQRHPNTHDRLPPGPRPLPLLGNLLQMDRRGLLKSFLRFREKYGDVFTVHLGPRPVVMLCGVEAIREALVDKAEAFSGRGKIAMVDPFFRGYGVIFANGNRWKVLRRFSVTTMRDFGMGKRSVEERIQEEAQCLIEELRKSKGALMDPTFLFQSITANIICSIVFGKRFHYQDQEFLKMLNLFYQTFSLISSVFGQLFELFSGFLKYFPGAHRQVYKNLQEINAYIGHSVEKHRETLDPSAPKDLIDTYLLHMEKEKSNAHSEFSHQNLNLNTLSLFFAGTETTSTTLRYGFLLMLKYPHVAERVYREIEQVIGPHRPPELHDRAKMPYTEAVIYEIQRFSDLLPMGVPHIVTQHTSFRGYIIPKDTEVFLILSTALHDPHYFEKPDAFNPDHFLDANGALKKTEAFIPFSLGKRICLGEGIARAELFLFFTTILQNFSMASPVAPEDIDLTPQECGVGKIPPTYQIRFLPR

[2] = hPXR/CYP3A mice pretreated with RCP (60 mg/kg, po, bid, 4 days), then oral RTV 20 mg/kg + NMV 60 mg/kg
CYP2E1 = CYP2E1 (Homo sapiens, UniProt P05181); settings: 20 μmol/L NMV, 10 pmol CYP, 1 mmol/L NADPH, 37 °C, 1 h
Chain of CYP2E1 (P05181 whole entry): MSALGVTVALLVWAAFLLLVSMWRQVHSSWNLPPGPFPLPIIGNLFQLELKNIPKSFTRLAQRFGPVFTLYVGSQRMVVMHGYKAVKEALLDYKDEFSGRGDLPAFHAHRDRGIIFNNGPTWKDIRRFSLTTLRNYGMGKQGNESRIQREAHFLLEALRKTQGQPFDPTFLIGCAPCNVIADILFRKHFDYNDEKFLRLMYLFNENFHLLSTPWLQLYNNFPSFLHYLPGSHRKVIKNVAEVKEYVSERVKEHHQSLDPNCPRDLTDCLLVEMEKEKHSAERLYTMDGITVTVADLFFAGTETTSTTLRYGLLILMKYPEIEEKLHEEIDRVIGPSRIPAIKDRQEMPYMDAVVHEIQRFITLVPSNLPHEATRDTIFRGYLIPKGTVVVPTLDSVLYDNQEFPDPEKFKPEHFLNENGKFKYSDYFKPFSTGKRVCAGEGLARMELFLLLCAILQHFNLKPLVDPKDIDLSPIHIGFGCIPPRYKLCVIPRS

[3] = 20 μmol/L NMV, 0.1 mg HLM, 1 mmol/L NADPH, 37 °C, 1 h
CYP3A4 = CYP3A4 (Homo sapiens, UniProt P08684); settings: 20 μmol/L NMV, 10 pmol CYP, 1 mmol/L NADPH, 37 °C, 1 h
Chain of CYP3A4 (P08684 whole entry): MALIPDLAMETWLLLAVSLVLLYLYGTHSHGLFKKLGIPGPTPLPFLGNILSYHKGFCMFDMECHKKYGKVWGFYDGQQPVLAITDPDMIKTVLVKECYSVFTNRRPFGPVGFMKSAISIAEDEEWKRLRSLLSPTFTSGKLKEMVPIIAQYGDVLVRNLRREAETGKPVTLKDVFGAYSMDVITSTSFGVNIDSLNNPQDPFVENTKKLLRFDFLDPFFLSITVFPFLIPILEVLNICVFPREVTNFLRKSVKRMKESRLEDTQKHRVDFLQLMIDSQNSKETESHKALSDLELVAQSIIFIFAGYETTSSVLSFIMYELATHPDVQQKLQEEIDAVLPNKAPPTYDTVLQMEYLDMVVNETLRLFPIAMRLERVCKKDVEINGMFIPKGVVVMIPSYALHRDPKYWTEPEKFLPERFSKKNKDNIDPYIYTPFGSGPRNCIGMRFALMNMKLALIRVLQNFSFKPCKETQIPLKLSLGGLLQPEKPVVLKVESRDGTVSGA

CYP3A5 = CYP3A5 (Homo sapiens, UniProt P20815); settings: 20 μmol/L NMV, 10 pmol CYP, 1 mmol/L NADPH, 37 °C, 1 h
Chain of CYP3A5 (P20815 whole entry): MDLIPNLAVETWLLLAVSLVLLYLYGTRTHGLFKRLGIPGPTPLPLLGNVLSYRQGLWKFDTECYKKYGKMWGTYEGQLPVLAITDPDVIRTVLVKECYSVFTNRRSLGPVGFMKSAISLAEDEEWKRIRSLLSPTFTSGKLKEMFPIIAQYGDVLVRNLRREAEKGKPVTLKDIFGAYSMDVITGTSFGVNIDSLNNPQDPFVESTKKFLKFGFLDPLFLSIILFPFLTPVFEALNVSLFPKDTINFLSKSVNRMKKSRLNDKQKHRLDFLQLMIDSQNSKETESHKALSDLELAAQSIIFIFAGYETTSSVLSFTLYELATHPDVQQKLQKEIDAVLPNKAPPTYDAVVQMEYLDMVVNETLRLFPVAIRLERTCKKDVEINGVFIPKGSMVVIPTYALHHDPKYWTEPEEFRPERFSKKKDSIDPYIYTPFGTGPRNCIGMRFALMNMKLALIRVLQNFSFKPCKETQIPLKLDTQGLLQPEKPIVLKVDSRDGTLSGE

CYP2C19 = CYP2C19 (Homo sapiens, UniProt P33261); settings: 20 μmol/L NMV, 10 pmol CYP, 1 mmol/L NADPH, 37 °C, 1 h
Chain of CYP2C19 (P33261 whole entry): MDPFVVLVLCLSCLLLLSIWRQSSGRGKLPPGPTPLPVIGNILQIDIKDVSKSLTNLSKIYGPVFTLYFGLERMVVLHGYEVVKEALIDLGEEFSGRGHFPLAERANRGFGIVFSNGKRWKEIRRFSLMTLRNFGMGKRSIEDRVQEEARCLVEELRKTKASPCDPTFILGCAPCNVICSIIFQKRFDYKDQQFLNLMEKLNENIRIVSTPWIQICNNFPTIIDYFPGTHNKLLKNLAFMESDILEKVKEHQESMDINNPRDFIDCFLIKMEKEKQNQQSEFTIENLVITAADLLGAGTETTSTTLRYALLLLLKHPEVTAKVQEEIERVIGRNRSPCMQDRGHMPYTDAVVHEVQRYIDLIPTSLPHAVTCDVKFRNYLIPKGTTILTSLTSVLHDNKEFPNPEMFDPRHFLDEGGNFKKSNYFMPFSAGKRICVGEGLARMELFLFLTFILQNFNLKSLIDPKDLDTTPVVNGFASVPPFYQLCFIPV

CYP3A protein = settings: RCP 60 mg/kg po bid 4 days
CYP3A4 mRNA = settings: hPXR/CYP3A mice; RIF 50 mg/kg in diet 7 days; RCP 60 mg/kg po bid 4 days
[4] = clinical studies, co-administration of carbamazepine (CYP3A inducer) ref 16

| Structure (SMILES) | contribution of CYP2A6 to NMV metabolism (CYP2A6) | contribution of CYP1A2 to NMV metabolism (CYP1A2) | contribution of CYP2C9 to NMV metabolism (CYP2C9) | contribution of CYP2D6 to NMV metabolism (CYP2D6) | decrease in AUC of NMV [1, 4] [%] | decrease in Cmax of NMV [1, 4] [%] | reduction for NMV exposure ([1]; healthy subjects, CYP3A4 inducer carbamazepine, Paxlovid fact sheet ref 16) [%] | change of NMV (systemic) exposure (in words) ([1]; healthy subjects, CYP3A4 inhibitor itraconazole, Paxlovid fact sheet ref 16) | contribution of CYP2B6 to NMV metabolism (CYP2B6) | change of AUC in serum vs control group (in words) [2] | change of Cmax in serum vs control group (in words) [2] | contribution of CYP2E1 to NMV metabolism (CYP2E1) | number of NMV metabolites identified in the incubation with HLM [3] | contribution of CYP3A4 to NMV metabolism (formation of M1–M7) (CYP3A4) | contribution of CYP3A5 to NMV metabolism (formation of M1–M7) (CYP3A5) | contribution of CYP2C19 to NMV metabolism (CYP2C19) | increase of protein level of CYP3A in the liver vs control (CYP3A protein; Pxr-null/CYP3A mice) | protein level of CYP3A in the liver vs control (CYP3A protein; hPXR/CYP3A mice, RIF 50 mg/kg in diet 7 days) | mRNA expression of CYP3A4 in the liver vs control (CYP3A4 mRNA) |
| --- | --- | --- | --- | --- | --- | --- | --- | --- | --- | --- | --- | --- | --- | --- | --- | --- | --- | --- | --- |
| CC(C)(C)[C@H](NC(=O)C(F)(F)F)C(=O)N1C[C@H]2[C@@H]([C@H]1C(=O)N[C@H](C#N)C[C@@H]1CCNC1=O)C2(C)C [NMV, nirmatrelvir] | did not contribute to NMV metabolism | did not contribute to NMV metabolism | did not contribute to NMV metabolism | did not contribute to NMV metabolism | ~50 | ~50 | ~50 | increased the systemic exposure of NMV | did not contribute to NMV metabolism | significantly decreased | significantly decreased | did not contribute to NMV metabolism | 7 | contributed the most to all the 7 metabolic pathways of NMV | also involved in the 7 metabolic pathways of NMV, especially for the production of M4 and M5 | did not contribute to NMV metabolism |  |  |  |
| CC(C)c1nc(CN(C)C(=O)N[C@H](C(=O)N[C@@H](Cc2ccccc2)C[C@H](O)[C@H](Cc2ccccc2)NC(=O)OCc2cncs2)C(C)C)cs1 [RTV, ritonavir] |  |  |  |  |  |  |  |  |  | also decreased | also decreased |  |  |  |  |  |  |  |  |
| CC[C@H]1CN2CC[C@]3(C(=O)Nc4ccccc43)[C@@H]2C[C@@H]1/C(=C\OC)C(=O)OC [RCP, rhynchophylline] |  |  |  |  |  |  |  |  |  |  |  |  |  |  |  |  | but not in Pxr-null/CYP3A mice | increased the protein level of CYP3A | significantly upregulated |
